Measured values: patent US20260000685A1, “PHARMACEUTICAL COMPOSITION FOR PREVENTING OR TREATING DEGENERATIVE BRAIN DISEASES, COMPRISING CANNABINOIDS AS ACTIVE INGREDIENT, AND USES THEREOF” (NEOCANNBIO CO., LTD., priority 2022, published 2026)

Experiments:
[1] = tested on: phosphorylated tau (p-Tau); assay: Western blotting of Tau/p-Tau in Aβ1-42-treated primary neuronal cells; assay type: cell-based, ICR mice; conditions: with Aβ1-42 (5 μM), 24 hours; compared to Aβ1-42 alone; FIG. 7
Protocol: (§1) To conduct Western blotting, tissues were homogenized in radioimmunoprecipitation assay buffer (Cell Signaling) to acquire tissue lysates. Tissue protein concentrations were determined using the Bio-Rad protein assay (Bio-Rad, Hercules, CA, USA), and Western blot analysis was conducted using 80-120 μg of protein. Next, the Western blotting samples prepared using the proteins were separated using 12% SDS-PAGE and transferred to a polyvinylidene fluoride membrane (PVDF) (Merck Millipore, Burlington, MA, USA; 0.4 μm). The PVDF was blocked with tris-buffered saline including 5% bovine serum albumin and Tween-20, and incubated with primary antibodies overnight at 4° C. After primary antibody incubation, the samples were incubated with HRP-conjugated secondary antibody (Sigma; 1:5000) for 1 hour at room temperature, and immunodetection was conducted using an enhanced chemiluminescence detection kit (GE Healthcare, Chicago, IL, USA).
Specifically, primary neuronal cells derived from ICR mice were cultured for 6 days, and then treated with CBDA, THCA, THC, or CBN compounds while treating with Aβ1-42 (5 μM), and treated together for 24 hours. Next, to confirm the expression levels of Tau and phosphorylated Tau (p-Tau) in the cells, Western blotting was conducted using the method disclosed in Example 4 above.

[2] = tested on: phosphorylated tau (p-Tau); assay: Western blot of Tau/p-Tau in hippocampal tissues of animal model; assay type: in vivo, ICR mice; conditions: day 19; compared to Aβ1-42 treated group; FIG. 16
Protocol: as §1
Specifically, hippocampal tissues were acquired on day 19 from the animal models created in Example 7 above (PBS treated group, Aβ1-42 treated group, CBDA treated group, and THCA treated group), and Western blot analysis was conducted on the hippocampal tissues to evaluate the expression levels of Tau and phosphorylated Tau (p-Tau).

[3] = tested on: p-CREB (CAMP Response Element-Binding Protein); assay: Western blot of p-CREB in hippocampal tissues of animal model; assay type: in vivo, ICR mice; conditions: day 19; compared to Aβ1-42 treated group; FIG. 17
Protocol: as §1
(§2) Specifically, hippocampal tissues were acquired on day 19 from the animal models created in Example 7 above (PBS treated group, Aβ1-42 treated group, CBDA treated group, and THCA treated group), and Western blot analysis was conducted on the hippocampal tissues to evaluate the expression levels of BDNF, p-CREB, and p-TrKB.

amyloid beta (Aβ) = assay: Western blotting of Aβ expression in Aβ1-42-treated primary neuronal cells; assay type: cell-based, ICR mice; conditions: with Aβ1-42 (5 μM), 24 hours; for expression level of oligomeric Aβ / expression level of polymeric Aβ: CBDA (6 μM) or THCA (5 μM), FIG. 6; for expression level of AB: compared to Aβ1-42 alone, FIG. 5
Protocol: Specifically, primary neuronal cells derived from ICR mice were cultured for 6 days, and then treated with CBDA, THCA, THC, or CBN compounds while treating with Aβ1-42 (5 μM), and treated together for 24 hours. Next, Western blotting was conducted to confirm the expression levels of APP (Amyloid Precursor Protein), polymeric Aβ, and oligomeric AB in the cells.
as §1

[4] = tested on: Alzheimer's animal model (Aβ1-42 treated mice); assay: Novel object recognition test (NOR) in Aβ1-42 Alzheimer's animal model; assay type: in vivo, ICR mice; conditions: compared to mice treated with only Aβ1-42; FIG. 14
Protocol: (§3) Female ICR mice (8 weeks old) used in the experiment were purchased from Coretech (Pyeongtaek, Korea). Mice were housed in the animal care facility of the Korea Institute of Science and Technology (KIST) (temperature 22±2° C., humidity 40-60%, 12-hour light/dark cycle). Mice were housed in an environment with free access to food and water. All animal experiments were conducted in accordance with the protocol approval of the Animal Ethics Committee of our institution.
(§4) Next, to create an animal model, mice were randomly selected and divided into four groups as follows: PBS treated group (PBS+PBS), Aβ1-42 treated group (Aβ1-42 +PBS) (Alzheimer's animal model), CBDA treated group (Δβ1-42+CBDA (6.25 µM, 3 μL/mouse)), and THCA treated group (Δβ1-42+THCA (12.5 μM, 3 μL/mouse)).
(§5) After anesthetizing the isolated mice by intraperitoneal (i.p.) injection of avertin (250 mg/kg), the mice were fixed in a stereotaxic apparatus, and CBDA, THCA, Aβ1-42, or PBS (3 μl/15 min/mouse) were gradually delivered to the hippocampus using a Hamilton syringe (coordinates of bregma: mediolateral (ML)=1.30 mm, anteroposterior (AP)=−2.00 mm, dorsoventral=−2.20 mm).
(§6) First, the Novel Object Recognition Test (NOR) was conducted to examine a natural tendency of the experimental mice to explore novel stimuli. For this purpose, during the habituation session conducted 2 days before the test, the mice were allowed to explore the test environment consisting of an opaque custom-made Plexiglas box (35 cm×45 cm×25 cm) for 10 minutes. The sample object phase was conducted 24 hours later. Two identical white circular cylinders (sample objects) were placed on opposite edges of the test environment, and mice were given access to the objects for 10 minutes. After 4 hours (novel object stage), one of the sample objects in the test environment was replaced with a similarly sized novel object (colored miniature animal), and the mouse was allowed to contact this novel arrangement for 5 minutes. The time when the mouse's nose stayed <1 cm away from the object was considered the time the mouse explored the object, excluding the time when the mouse stood on the object. The identification rate was calculated as the time spent exploring the novel object relative to the time spent exploring the two objects.

[5] = tested on: Alzheimer's animal model (Aβ1-42 treated mice); assay: Object location test (OLT) in Aβ1-42 Alzheimer's animal model; assay type: in vivo, ICR mice; conditions: compared to mice treated with only Aβ1-42; FIG. 14
Protocol: as §3, §4, §5, §6
Additionally, for the object location test (OLT), it was conducted in the same manner as the novel object recognition test described above, but on the last day of the object location test, one of the two sample objects was moved to a different location and the test was conducted.

[6] = tested on: BDNF (brain-derived neurotrophic factor); assay: Western blot of BDNF in hippocampal tissues of animal model; assay type: in vivo, ICR mice; conditions: day 19; compared to Aβ1-42 treated group; FIG. 17
Protocol: as §1, §2

Row | SMILES | expression level of p-Tau [1] | phosphorylation level of p-Tau [1] | expression level of p-Tau in hippocampal tissues [2] | phosphorylation level of p-Tau in hippocampal tissues [2] | expression level of p-CREB in hippocampal tissues [3] | expression level of oligomeric Aβ (amyloid beta (Aβ)) | expression level of polymeric Aβ (amyloid beta (Aβ)) | expression level of AB (amyloid beta (Aβ)) | identification rate (NOR) [4] | time investigating the novel object [4] | identification rate (OLT) [5] | time investigating the object moved to a different location [5] | expression level of BDNF in hippocampal tissues [6]
1 | C=C(C)[C@@H]1CCC(C)=C[C@H]1c1c(O)cc(CCCCC)c(C(=O)O)c1O [CBDA] | significantly reduced | significantly reduced | significantly reduced | significantly reduced | significantly increased | significantly reduced | significantly reduced | significantly reduced | significantly increased | spent more time | significantly increased | spent more time | significantly increased
2 | CCCCCc1cc2c(c(O)c1C(=O)O)[C@@H]1C=C(C)CC[C@H]1C(C)(C)O2 [THCA, (6aR, 10aR)-1-Hydroxy-6,6,9-trimethyl-3-pentyl-6a,7,8,10a-tetrahydro-6H-benzo[c]chromene-2-carboxylic acid] | significantly reduced | significantly reduced | significantly reduced | significantly reduced | significantly increased | significantly reduced | significantly reduced | significantly reduced | significantly increased | spent more time | significantly increased | spent more time | significantly increased
